Starred links: 1 amine or outer side, 2 acyl side, 3 side chain; linkers in the order of their positions; H or OH if unused. Residues, ends and D or L forms follow the SMILES beside them. Groups on a side chain read outwards from the residue. No end group written: not given here. *: point of attachment. γGlu = O=C(O)[C@H](CCC(=O)[*:2])N[*:1]; Palmitoyl = CCCCCCCCCCCCCCCC(=O)*
How the values were obtained:
[1] = target: T1, mouse GIP receptor (Mus musculus, UniProt Q0P543); assay: Antagonist mode cAMP assay: inhibition of mouse GIP-induced cAMP production in CHO-K1 GIPR Gs cells; type: cell-based; conditions: curve fit value in plot, unit from legend, read-out: IC50 (printed on plot, Fig 1A/1B)
T1 construct: host or cells: CHO-K1 (cAMP Hunter CHO-K1 GIPR Gs cell line)
T1 sequence (Q0P543 19-460): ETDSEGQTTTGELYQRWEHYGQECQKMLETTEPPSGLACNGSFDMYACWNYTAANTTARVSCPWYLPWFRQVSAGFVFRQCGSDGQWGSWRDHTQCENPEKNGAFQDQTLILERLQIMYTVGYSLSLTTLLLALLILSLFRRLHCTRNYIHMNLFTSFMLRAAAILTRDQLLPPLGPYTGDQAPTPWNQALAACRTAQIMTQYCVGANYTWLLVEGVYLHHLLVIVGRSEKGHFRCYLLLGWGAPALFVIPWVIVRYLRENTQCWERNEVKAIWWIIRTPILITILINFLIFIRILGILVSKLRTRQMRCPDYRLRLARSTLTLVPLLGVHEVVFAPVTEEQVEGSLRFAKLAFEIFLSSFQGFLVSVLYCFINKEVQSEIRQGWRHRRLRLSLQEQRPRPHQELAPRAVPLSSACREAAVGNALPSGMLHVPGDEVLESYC
Procedure: Each peptide was tested for its ability to activate or inhibit the mouse GIP receptor using the cAMP Hunter™ CHO-K1 GIPR Gs cell line, in combination with the Hit Hunter® cAMP XP+ assay for determining cAMP, according to the manufacturer’s instructions (Eurofins DiscoverX Corporation).
Fig 1 Effects of acute GIPR antagonism on glucose homeostasis and insulin secretion. GIPA-1 and GIPA-2 are antagonists of mouse GIPR. […] IC50 values (μM) are indicated on the plots. (C-J) Acute effects of GIPA-1 and GIPA-2 on glucose homeostasis and insulin secretion in lean mice. Oral glucose tolerance tests (C and E), the corresponding areas under the curve (AUC) (D and F) and insulin responses (I) following subcutaneous injections of vehicle, 1,5 and 10 mg/kg GIPA-1 (C and D) or vehicle, 1,5 and 10 mg/kg GIPA-2 (E and F) before an oral glucose administration (1.5 g/kg). […] Statistical analysis was calculated using two-way ANOVA with Tukey’s post-hoc test (C, E, G and J) and one-way ANOVA with Dunnett’s post-hoc test (D, F, H, I). *: p< 0.05, **: p < 0.01, ***: p < 0.001, ****: p<0.0001 compared to vehicle.
We began by characterising the receptor-interaction properties of GIPA-1 and GIPA-2. Their agonist and antagonist potencies were measured via a cAMP production assay in CHO-K1 cells overexpressing the mouse GIPR.

[2] = cited from earlier work
From the text: Given the strong in vitro pharmacological data and our interest in other metabolic parameters such as adiposity and insulin se ...

[3] = system: GIPR; conditions: cited from earlier work
From the text: Further controversy is evident with peptide based GIPR antagonists. […] In contrast, a palmitoyl variant of Pro^3GIP(3–30) ... || The GLP-1-agonist-GIPR-antagonist combination therapy reported in the present study was born from evidence of compromised gut-hormone function in obesity and diabetes as well as their postulated role in driving the beneficial metabolic effects following bariatric surgery. Indeed, GLP-1 secretion is enhanced after bariatric surgery which is thought to be a key component for the resolution of diabetes. In contrast, the controversial role of the GIP signalling pathway in dysmetabolic states has led to the pursuit of both agonist and antagonist approaches. There is a compelling ...

[4] = system: GIP receptor; conditions: humans, co-infusion with GIP(3-30)NH2; cited from earlier work
From the text: (§1) It has been shown that rat and the human GIP(3-30)NH2 are effective antagonists in vivo [48, 49], so we would expect the mouse GIP(3-30)NH2 to behave in a similar manner. […] In humans GIP-induced insulin secretion was reduced by 82% during co-infusion with GIP(3-30)NH2 [48].

[5] = system: lean male C57BL/6JRj mice; assay: Acute intraperitoneal glucose tolerance test (IPGTT) with GIPA-2 and mouse GIP in lean mice; type: in vivo; conditions: n = 8; for plasma insulin: 0.1 mg/kg mouse GIP SC
Procedure: The effects of GIPA-2 and mouse GIP alone or in combination were studied in 10-week old lean male C57BL/6JRj mice. Animals were fasted 4 hours prior to an intraperitoneal glucose bolus (1.5 g/kg). Sixty minutes prior to glucose load animals received subcutaneous injection of 5mg/kg GIPA-2, while animals receiving mouse GIP (0.1 mg/kg) were dosed subcutaneously 15 minutes prior to glucose load. Blood glucose was measured just before the administration of GIPA-2 and at 0, 15, 30 60, 120, 180 and 240 min. Plasma insulin was measured at 0, 15 and 240 min.
Fig 1 Effects of acute GIPR antagonism on glucose homeostasis and insulin secretion. GIPA-1 and GIPA-2 are antagonists of mouse GIPR. […] IC50 values (μM) are indicated on the plots. (C-J) Acute effects of GIPA-1 and GIPA-2 on glucose homeostasis and insulin secretion in lean mice. Oral glucose tolerance tests (C and E), the corresponding areas under the curve (AUC) (D and F) and insulin responses (I) following subcutaneous injections of vehicle, 1,5 and 10 mg/kg GIPA-1 (C and D) or vehicle, 1,5 and 10 mg/kg GIPA-2 (E and F) before an oral glucose administration (1.5 g/kg). (G, H and J) Acute effect of GIPA-2 alone or in combination with mouse GIP on glucose homeostasis and insulin secretion in lean mice. Intraperitoneal glucose tolerance test cute IPGTT (G), the corresponding AUC (H) and insulin response (J) following subcutaneous injections of vehicle, 0.1 mg/kg mouse GIP, 5mg/kg GIPA-2, and combination of both. Group sizes are n = 8, and data are represented as mean ± SEM. Statistical analysis was calculated using two-way ANOVA with Tukey’s post-hoc test (C, E, G and J) and one-way ANOVA with Dunnett’s post-hoc test (D, F, H, I). *: p< 0.05, **: p < 0.01, ***: p < 0.001, ****: p<0.0001 compared to vehicle.

[6] = system: rats; conditions: 25 nmol/kg b.w. for 3 weeks, cited from earlier work
From the text: as §1, with “Further controversy is evident with peptide based GIPR antagonists. […] In contrast, a palmitoyl variant of Pro^3GIP(3–30) ... || It” for “It”

`CC[C@H](C)[C@H](NC(=O)[C@H](CO)NC(=O)[C@H](Cc1ccc(O)cc1)NC(=O)[C@H](CC(=O)O)NC(=O)[C@H](CO)NC(=O)[C@@H](NC(=O)[C@H](Cc1ccccc1)NC(=O)[C@@H](NC(=O)CNC(=O)[C@@H](N)CCC(=O)O)[C@@H](C)O)[C@@H](C)CC)C(=O)N[C@@H](C)C(=O)N[C@@H](CCSC)C(=O)N[C@@H](CC(=O)O)C(=O)N[C@@H](CCCCN)C(=O)N[C@H](C(=O)N[C@@H](CCCNC(=N)N)C(=O)N[C@@H](CCC(N)=O)C(=O)N[C@@H](CCC(N)=O)C(=O)N[C@@H](CC(=O)O)C(=O)N[C@@H](Cc1ccccc1)C(=O)N[C@H](C(=O)N[C@@H](CC(N)=O)C(=O)N[C@@H](Cc1c[nH]c2ccccc12)C(=O)N[C@@H](CC(C)C)C(=O)N[C@@H](CC(C)C)C(=O)N[C@@H](C)C(=O)N[C@@H](CCC(N)=O)C(=O)N[C@@H](CCCNC(=N)N)C(N)=O)C(C)C)[C@@H](C)CC` [GIPA-1, mouse GIP(3–30)NH2] gave an IC50 [1] of 483 nM.

In the case of `CCCCCCCCCCCCCCCC(=O)N[C@@H](CCC(=O)N[C@@H](CCC(=O)NCCCC[C@H](NC(=O)[C@H](CC(=O)O)NC(=O)[C@H](CO)NC(=O)[C@@H](NC(=O)[C@H](Cc1ccccc1)NC(=O)[C@@H](NC(C)=O)[C@@H](C)O)[C@@H](C)CC)C(=O)N[C@@H](CO)C(=O)N[C@H](C(=O)N[C@@H](C)C(=O)N[C@@H](CCSC)C(=O)N[C@@H](CC(=O)O)C(=O)N[C@@H](CCCCN)C(=O)N[C@H](C(=O)N[C@@H](CCCNC(=N)N)C(=O)N[C@@H](CCC(N)=O)C(=O)N[C@@H](CCC(N)=O)C(=O)N[C@@H](CC(=O)O)C(=O)N[C@@H](Cc1ccccc1)C(=O)N[C@H](C(=O)N[C@@H](CC(N)=O)C(=O)N[C@@H](Cc1c[nH]c2ccccc12)C(=O)N[C@@H](CC(C)C)C(=O)N[C@@H](CC(C)C)C(=O)N[C@@H](C)C(=O)N[C@@H](CCC(N)=O)C(=O)N[C@@H](CCCCN)C(=O)NCC(=O)N[C@@H](CCCCN)C(=O)N[C@@H](CCCCN)C(=O)N[C@@H](CC(N)=O)C(=O)N[C@@H](CC(=O)O)C(=O)N[C@@H](Cc1c[nH]c2ccccc12)C(=O)N[C@@H](CCCCN)C(=O)N[C@@H](Cc1c[nH]cn1)C(=O)N[C@@H](CC(N)=O)C(=O)N[C@H](C(=O)N[C@H](C(=O)N[C@@H](CCC(N)=O)C(=O)O)[C@@H](C)O)[C@@H](C)CC)C(C)C)[C@@H](C)CC)[C@@H](C)CC)C(=O)O)C(=O)O` [GIPA-2, N^αAc-K10[γEγE-C16]-Arg18-hGIP(5–42)] (Ac-TFISDK([γGlu-γGlu-Palmitoyl])SIAMDKIRQQDFVNWLLAQKGKKNDWKHNITQ-OH), the IC50 [1] is given as 2.97 nM and the “plasma half-life and in vivo duration of action” value [2] is given as “extended plasma half-life”.

In the case of “(Pro3)-GIP: GIPR antagonist subsequently found to also possess partial agonist properties (YAPGTFISDYSIAMDKIHQQDFVNWLLAQKGKKNDWKHNITQ; Gastric inhibitory polypeptide; UniProt P09681 52-93, looked up, variant E3P)”, the GIPR agonist/antagonist character [3] is given as “originally characterized as an antagonist but was subsequently found to also possess partial agonist properties”.

In the case of “GIP(3–30)NH2: N-terminally truncated form of GIP, potent peptide-based antagonist; species not stated (EGTFISDYSIAMDKIHQQDFVNWLLAQK-NH2; UniProt P09681 54-81, looked up, fragment)”, the GIPR antagonist potency [3] is given as “potent peptide-based antagonist”.

For “human GIP(3-30)NH2: the human peptide sequence of GIP(3-30)NH2 (EGTFISDYSIAMDKIHQQDFVNWLLAQK-NH2; UniProt P09681 54-81, looked up, fragment)”, the “reduction of GIP-induced insulin secretion” value [4] is given as 82% and the plasma elimination half-life ([2]; human peptide sequence, in humans) is given as 7.7 ± 1.4 min.

For “mouse GIP: Mouse GIP was sourced from Phoenix Pharmaceuticals (YAEGTFISDYSIAMDKIRQQDFVNWLLAQRGKKSDWKHNITQ; Gastric inhibitory polypeptide; UniProt P48756 44-85, looked up)”, the “glucose tolerance (IPGTT)” value ([5]; 5 mg/kg GIPA-2 SC 60 min and/or 0.1 mg/kg mouse GIP SC 15 min before ip glucose 1.5 g/kg) was “significantly improved glucose tolerance”, the plasma insulin ([5]; 15 and 240 min timepoints) was “This effect was not observed” and the plasma insulin ([5]; 15 minutes after mouse GIP, just prior to glucose bolus (0 min), 5 mg/kg GIPA-2 SC) was “robust increase in plasma insulin”.

In the case of “rat GIP(3–30)NH2: GIPR antagonist, rat GIP(3–30)NH2”, the “body weight, fat mass, triglycerides, LPL, leptin” value ([6]; sub-chronic dosing, rats fed normal chow) is listed as “significantly increased body weight, body fat mass, triglycerides, LPL, and leptin levels” and the “food intake or bone resorption” value ([6]; subchronic treatment) is listed as “did not modify food intake or bone resorption”.

— paper PMC8011784, “Chronic peptide-based GIP receptor inhibition exhibits modest glucose metabolic changes in mice when administered either alone or combined with GLP-1 agonism” (PLoS ONE, 2021)
